According to PubChem BioAssay AID1919006 (Molecular Pharmacology Branch, DTP, NCI, 2023):
Several values for one entry are separate records, joined by “and”; a condition that tells them apart may be missing. Equal values may be shown once.

Tested on: 885512-296-R-J2-PDC complex spheroid growth, % test/control
Assay: Anticancer human tumor 885512-296-R-J2-PDC patient-derived breast carcinoma cell line growth inhibition [AhR]
Conditions: for viability, T/C: stronger effect = lower value; active = viability on the fitted dose curve at most 10% of control; inactive = the rest
Summary of the method: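 Complex tumor spheroids co-cultured with HUVEC and human MSC stroma; AhR antagonists tested in combination with standard-of-care and investigational agents. Top concentration at or near clinical Cmax (else 10 microM), half-log dilutions; growth expressed as percent test/control.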

[1] = curve of first compound, second compound 0.1 µM
[2] = curve of first compound, second compound 0.316 µM
[3] = curve of first compound, second compound 1 µM
[4] = curve of first compound, second compound 3.16 µM
[5] = curve of first compound, second compound 10 µM
[6] = second compound 0.1 µM, first compound 0.0316 µM
[7] = second compound 0.1 µM, first compound 0.1 µM
[8] = second compound 0.1 µM, first compound 0.316 µM
[9] = second compound 0.1 µM, first compound 1 µM
[10] = second compound 0.1 µM, first compound 3.16 µM
[11] = second compound 0.1 µM, first compound 10 µM
[12] = second compound 0.316 µM, first compound 0.0316 µM
[13] = second compound 0.316 µM, first compound 0.1 µM
[14] = second compound 0.316 µM, first compound 0.316 µM
[15] = second compound 0.316 µM, first compound 1 µM
[16] = second compound 0.316 µM, first compound 3.16 µM
[17] = second compound 0.316 µM, first compound 10 µM
[18] = second compound 1 µM, first compound 0.0316 µM
[19] = second compound 1 µM, first compound 0.1 µM
[20] = second compound 1 µM, first compound 0.316 µM
[21] = second compound 1 µM, first compound 1 µM
[22] = second compound 1 µM, first compound 3.16 µM
[23] = second compound 1 µM, first compound 10 µM
[24] = second compound 3.16 µM, first compound 0.0316 µM
[25] = second compound 3.16 µM, first compound 0.1 µM
[26] = second compound 3.16 µM, first compound 0.316 µM
[27] = second compound 3.16 µM, first compound 1 µM
[28] = second compound 3.16 µM, first compound 3.16 µM
[29] = second compound 3.16 µM, first compound 10 µM
[30] = second compound 10 µM, first compound 0.0316 µM
[31] = second compound 10 µM, first compound 0.1 µM
[32] = second compound 10 µM, first compound 0.316 µM
[33] = second compound 10 µM, first compound 1 µM
[34] = second compound 10 µM, first compound 3.16 µM
[35] = second compound 10 µM, first compound 10 µM
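Note: spheroids exposed to compounds for seven days.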

CC(C)c1c(-c2ccccc2)nc2c(C#N)c[nH]n2c1=O + CC(CO)NC(=O)c1cc(-c2ccc(Cl)cc2)nn(-c2cnn(C)c2)c1=O
inactive: viability, T/C [6] 110% | viability, T/C [7] 101% | viability, T/C [8] 97.6% | viability, T/C [9] 98% | viability, T/C [10] 98.2% | viability, T/C [11] 85.5% | viability, T/C [12] 105% | viability, T/C [13] 101% | viability, T/C [14] 104% | viability, T/C [15] 102% | viability, T/C [16] 93.3% | viability, T/C [17] 91.7% | viability, T/C [18] 105% | viability, T/C [19] 96.4% | viability, T/C [20] 107% | viability, T/C [21] 91.7% | viability, T/C [22] 99.1% | viability, T/C [23] 89.2% | viability, T/C [24] 108% | viability, T/C [25] 104% | viability, T/C [26] 99.5% | viability, T/C [27] 111% | viability, T/C [28] 105% | viability, T/C [29] 89.7% | viability, T/C [30] 109% | viability, T/C [31] 91.2% | viability, T/C [32] 86.9% | viability, T/C [33] 102% | viability, T/C [34] 97.2% | viability, T/C [35] 77%
> 10000 nM: IC50 [1] | IC50 [2] | IC50 [3] | IC50 [4] | IC50 [5]

CC1COCCN1c1cc(-c2ccnn2C)c2ccnc(-c3ccn[nH]3)c2n1 (configuration not stated)
10.5% and 10.1% and 13%: viability, T/C (compound 0.1 µM)
inactive: viability, T/C (compound 0.00316 µM) 82.9% and 88.1% and 101% | viability, T/C (compound 0.01 µM) 87.9% and 89.4% and 87.5% | viability, T/C (compound 0.0316 µM) 51.9% and 54.7% and 68%
34 nM and 36 nM and 45.5 nM: IC50 (curve of compound)
active: viability, T/C (compound 0.316 µM) 3.44% and 3.12% and 2.94% | viability, T/C (compound 1 µM) 2.43% and 2.64% and 1.91%

COc1cc(C2c3cc4c(cc3C(OC3OC5COC(C)OC5C(O)C3O)C3COC(=O)C23)OCO4)cc(OC)c1O (configuration not stated) + Cc1cncc(-c2nc(NCCc3c[nH]c4ccccc34)c3ncn(C(C)C)c3n2)c1
601 nM: IC50 [2]
170 nM: IC50 [4]
395 nM: IC50 [3]
inactive: viability, T/C [6] 104% | viability, T/C [7] 92.2% | viability, T/C [8] 75% | viability, T/C [9] 23.7% | viability, T/C [10] 10.6% | viability, T/C [12] 104% | viability, T/C [13] 101% | viability, T/C [14] 72.8% | viability, T/C [15] 32.1% | viability, T/C [16] 10.5% | viability, T/C [18] 90.2% | viability, T/C [19] 78% | viability, T/C [20] 59.3% | viability, T/C [21] 17.5% | viability, T/C [24] 64.9% | viability, T/C [25] 55.4% | viability, T/C [26] 42% | viability, T/C [27] 15.6% | viability, T/C [28] 10.7% | viability, T/C [30] 18.5% | viability, T/C [31] 17.6% | viability, T/C [32] 14.2% | viability, T/C [33] 14.1% | viability, T/C [34] 10.2%
active: viability, T/C [11] 8.99% | viability, T/C [17] 8.12% | viability, T/C [22] 11.2% | viability, T/C [23] 8.42% | viability, T/C [29] 9.12% | viability, T/C [35] 6.83%
< 31.6 nM: IC50 [5]
551 nM: IC50 [1]
